For data set [1], the system named is apo (a). Nature of the data set: apo (a) secretion in primary cultures of Cynomolgus hepatocytes (ELISA). Format: cell-based, Cynomolgus monkey. The following applies: Macaca fascicularis, Hepatocyte, 6-24 hours, vs ethanol control, read-out: change in apo (a) secretion in culture medium, percentage of control. As to the method:
The compounds of formula (I) were assayed for being able to effectively lower the production of apo (a) in primary cultures of Cynomolgus hepatocytes.
Hepatocytes were isolated from livers of male adult Cynomolgus monkeys by the two-step collagenase perfusion method according to C. Guguen-Guillouzo and A. Guillouzo “Methods for preparation of adult and fetal hepatocytes” p.1-12 in “Isolated and Cultured Hepatocytes”, les editions Inserm Paris and John Libbey Eurotext London (1986).
The viability of cells was determined by Trypan blue staining. The cells were then seeded at a density of 1.5-2.105 viable cells per 2 cm^2 in 24 well tissue culture plates in a volume of 500 μl per well of Williams E tissue culture medium containing 10% fetal calf serum. Cells were incubated for 6-24 hours at 37° C. in a CO2 incubator (5% CO2) in the presence of 20 μM of the test compounds dissolved in ethanol. Four wells were used for each compound. Nicotinic acid and steroid hormones were used as references to validate the assay system since they are known to decrease apo (a) in man. Control cells were incubated in the presence of ethanol only.
The amount of apo (a) secreted in culture medium was assayed directly by ELISA using a commercially available kit. Changes in apo (a) concentration in culture medium are given as the percentage of value measured for the control plates.
In general terms: ELISA stands for enzyme-linked immunosorbent assay.

What is called melting point is the temperature, or range, at which the solid turns liquid. In turn, `CCOP(=O)(OCC)C(CNc1cccnc1)c1cc(OC)c(O)c(OC)c1` (stereo not shown) gave a melting point of 152 to 154 °C.

The compound `CCOP(=O)(OCC)C(CNc1nccs1)c1cc(C)c(O)c(OC)c1` (stereo not shown) had a melting point of 85 to 87 °C.

As for `COc1cc(C(CNc2cccnc2)P(=O)(OC(C)C)OC(C)C)cc(OC)c1O` (stereo not drawn) [Compound 33, diisopropyl α-(3,5-dimethoxy-4-hydroxyphenyl)-β-[N-(3-pyridyl)-amino]-ethylphosphonate], the melting point is 156 to 158 °C. Moreover, the inhibition at 20 µM in data set [1] fell in the range of 19 to 55%.

On to `COc1cc(C(CNc2cccnc2)P(=O)(OC(C)C)OC(C)C)cc(C)c1O` (stereo not drawn) [Compound 35, diisopropyl α-(4-hydroxy-3-methoxy-5-methylphenyl)-β-[N-(3-pyridyl)amino]-ethylphosphonate], for which the inhibition at 20 µM in data set [1] is 19 to 55%.

Compound `CCOP(=O)(OCC)C(CNc1cnccn1)c1cc(OC)c(O)c(OC)c1` (stereo not drawn) [Compound 42, diethyl α-(3,5-dimethoxy-4-hydroxyphenyl)-β-[N-(pyrazinyl)-amino]-ethylphosphonate] yielded a melting point of 147 to 148 °C. Besides, the inhibition at 20 µM in data set [1] fell in the range of 19 to 55%.

With `COc1cc(C(CNc2cnccn2)P(=O)(OC(C)C)OC(C)C)cc(OC)c1O` (stereo not drawn) [Compound 43, diisopropyl α-(3,5-dimethoxy-4-hydroxyphenyl)-β-[N-(pyrazinyl)-amino]-ethylphosphonate], the melting point lay in the range of 169 to 171 °C. In addition, the inhibition at 20 µM in data set [1] is 19 to 55%.

On to `CCOP(=O)(OCC)C(CNc1cnccn1)c1cc(C)c(O)c(OC)c1` (stereo not drawn) [Compound 44, diethyl α-(4-hydroxy-3-methoxy-5-methylphenyl)-β-[N-(pyrazinyl)-amino]-ethylphosphonate], for which the inhibition at 20 µM in data set [1] is 19 to 55%.

In the case of `Cc1cc(C(CNc2cccnc2)P(=O)(OC(C)C)OC(C)C)cc(C)c1O` (stereo not drawn) [Compound 47, diisopropyl α-(3,5-dimethyl-4-hydroxyphenyl)-β-[N-(3-pyridyl)-amino]-ethylphosphonate], the inhibition at 20 µM in data set [1] was in the range of 19 to 55%.

With `CCOP(=O)(OCC)C(CNc1ncccn1)c1cc(C)c(O)c(OC)c1` (stereo not drawn) [Compound 53, diethyl α-(4-hydroxy-3-methoxy-5-methylphenyl)-β-[N-(2-pyrimidinyl)-amino]-ethylphosphonate], the melting point was in the range of 133 to 136 °C. Further, in data set [1], the inhibition at 20 µM was 19 to 55%.

As to `CCOc1cc(C(CNc2cccnc2)P(=O)(OCC)OCC)cc(C)c1O` (stereo not drawn) [Compound 55, diethyl α-(3-ethoxy-4-hydroxy-5-methylphenyl)-β-[N-(3-pyridyl)-amino]-ethylphosphonate], the melting point is 155 to 156 °C. Also, in data set [1], the inhibition at 20 µM was 19 to 55%.

Turning to `CCOP(=O)(OCC)C(CNc1nc2ccccc2s1)c1cc(C)c(O)c(OC)c1` (stereo not drawn) [Compound 81, diethyl α-(4-hydroxy-3-methoxy-5-methylphenyl)-β-[N-(2-benzothiazolyl)-amino]-ethylphosphonate], the inhibition at 20 µM in data set [1] fell in the range of 19 to 55%.

`CCOP(=O)(OCC)C(CNc1ccon1)c1cc(C)c(O)c(OC)c1` (stereo not drawn) [Compound 87, diethyl α-(4-hydroxy-3-methoxy-5-methylphenyl)-β-[N-(3-isoxazolyl)-amino]-ethylphosphonate]: in data set [1], the inhibition at 20 µM lay in the range of 19 to 55%.

As to `CCOP(=O)(OCC)C(CNc1cnccn1)c1cc(C)c(O)c(C)c1` (stereo not drawn) [Example 25, Diethyl α-(3,5-dimethyl-4-hydroxyphenyl)-β-[N-(pyrazinyl)-amino]-ethylphosphonate], in data set [1], the inhibition at 20 µM lay in the range of 19 to 55%.

For the compound `CCOP(=O)(OCC)C(CNc1cnccn1)c1cc(C)c(O)c(C(C)(C)C)c1` (stereo not drawn) [Example 26, Diethyl α-(3-tert-butyl-4-hydroxy-5-methylphenyl)-β-[N-(pyrazinyl)-amino]-ethylphosphonate], the inhibition at 20 µM in data set [1] was 19 to 55%.

Values taken from US6706698B2, “α-Substituted β-aminoethyl phosphonate derivatives” (Ilex Products, Inc., priority 2000, dated 2004).
